Results published in patent US6818407B2, “Anti-endotoxic antimicrobial cationic peptides and methods of use therfor” (priority 1998, dated 2004).
Ends that are not written are not given here.

Experiments:
[1] = test system: Staphylococcus epidermidis (C621); format: cell-based; settings: Mueller Hinton Broth
Description: (§1) The biological activity of the peptides can be determined by standard methods known to those of skill in the art, such as Aminimal inhibitory concentration (MIC)≅ assay described in the present examples, whereby the lowest concentration at which no change in OD is observed for a given period of time is recorded as MIC. Alternatively, Afractional inhibitory concentration (FIC)≅ is also useful for determination of synergy between the peptides of the invention, or the peptides in combination with known antibiotics. FICs are performed by checkerboard titrations of peptides in one dimension of a microtiter plate, and of antibiotics in the other dimension, for example. The FIC is calculated by looking at the impact of one antibiotic on the MIC of the other and vice versa. […] Preferably, an FIC of less than 0.5 is obtained for synergism. As used herein, FIC can be determined as follows: [formula]
(§2) These peptides varied in activity (Table 11), however, the C-terminally capped pleurocidin especially and its N-terminally capped lysine derivative had much better activities against a variety of bacteria including Vibrio anguillarum (Va), Aeromonas salmonicida (As), Staphylococcus epidermidis (C621), Salmonella typhimurium wild type (C587) and phoP phoQ mutant (C610), and Pseudomonas aeruginosa wild type (K799) and outer membrane barrier altered (Z61). The antimicrobial peptide CEME, a fusion peptide made from portions of an insect defensin ceropin A and the bee venom peptide melittin (Piers and Hancock, Mol. Microbiol., 12:951-8, 1994), as well as the known antibiotics polymyxin B and gentamicin were used as controls. Replacing the pleurocidin N-terminus with the dermaseptin N-terminus had no effect. Replacing pleurocidin N-terminus with the ceratoxin N-terminus reduced activity. […] Amidating the C-terminus improved antimicrobial activity. Replacing the pleurocidin C-terminus with the misgurin C-terminus had no effect.
(§3) Bacteria included Vibrio anguillarum (Va), Aeromonas salmonicida (As), Staphylococcus epidermidis (C621), Salmonella typhimurium wild type (C587) and phoP phoQ mutant (C6 10), and Pseudomonas aeruginosa wild type (K799) and outer membrane barrier altered (Z61).

[2] = test system: Aeromonas salmonicida (As); format: cell-based; settings: Mueller Hinton Broth
Description: as §1, §2, §3

[3] = test system: Salmonella typhimurium wild type (C587); format: cell-based; settings: Mueller Hinton Broth
Description: as §1, §2, §3

[4] = test system: Pseudomonas aeruginosa outer membrane barrier altered (Z61); format: cell-based; settings: Mueller Hinton Broth
Description: as §1, §2, §3

[5] = test system: Vibrio anguillarum (Va); format: cell-based; settings: Mueller Hinton Broth
Description: as §1, §2, §3

[6] = test system: Salmonella typhimurium phoP phoQ mutant (C610); format: cell-based; settings: Mueller Hinton Broth
Description: as §1, §2, §3

[7] = test system: Pseudomonas aeruginosa wild type (K799); format: cell-based; settings: Mueller Hinton Broth
Description: as §1, §2, §3

[8] = test system: Pseudomonas aeruginosa strain M2; experiment: Protection of neutropenic CD-1 mice challenged with Pseudomonas aeruginosa; format: in vivo; parameters: Survival post bacterial challenge, surviving mice: reference not given here; settings: for Survival (%) post bacterial challenge: PBS 8
Description: CD-1 mice were induced to be neutropenic via 3 intraperitoneal injections of cyclophosphamide ([…]) every another day. Immediately after the third administration of cyclophosphamide, the mice were challenged by intraperitoneal injection of Pseudomonas aeruginosa strain M2 (200-300 organisms/mouse). Cationic peptides (200 µg per mouse=8 mg/kg) in 100 µl buffered citrate were injected intraperitoneally at 30 min (single dose) or 30 min and 16 hrs (double dose) post bacterial challenge, respectively. The data were the average values of 2 individual experiments. PBS was used as a control. […] In general single dose protection studies gave better protection than double dose experiments.

Substance	MIC C621 [1]	MIC As [2]	MIC C587 [3]	MIC Z61 [4]	MIC Va [5]	MIC C610 [6]	MIC K799 [7]	Survival post bacterial challenge, surviving mice ([8]; single dose (200 μg per mouse i.p. at 30 min), 16 hr)	Survival post bacterial challenge, surviving mice ([8]; single dose, 24 hr)	Survival post bacterial challenge, surviving mice ([8]; single dose, 41 hr)	Survival post bacterial challenge, surviving mice ([8]; single dose, 48 hr)	Survival post bacterial challenge, surviving mice ([8]; single dose, 64 hr)	Survival (%) post bacterial challenge ([8]; single dose, 64 hr)	Survival post bacterial challenge, surviving mice ([8]; single dose, 72 hr)	Survival (%) post bacterial challenge ([8]; single dose, 72 hr)	Survival post bacterial challenge, surviving mice ([8]; single dose, 96 hr)	Survival (%) post bacterial challenge ([8]; single dose, 96 hr)
RQRVEELSKFSKKGAAARRRK [Peptide M-0, reference compound]	>64 mg/L	>64 mg/L	>64 mg/L	>64 mg/L	>64 mg/L	>64 mg/L	>64 mg/L	–	–	–	–	–	–	–	–	–	–
gentamicin [reference compound]	16 mg/L	<0.5 mg/L	<0.5 mg/L	<0.5 mg/L	1 mg/L	<0.5 mg/L	<0.5 mg/L	–	–	–	–	–	–	–	–	–	–
KGWGSFFKKAAHVGKHVGKAALTHYL-NH2 [Peptide P-1-CN]	2 mg/L	1 mg/L	2 mg/L	2 mg/L	2 mg/L	<0.5 mg/L	8 mg/L	–	–	–	–	–	–	–	–	–	–
polymyxin B [reference compound]	16 mg/L	<0.5 mg/L	<0.5 mg/L	<0.5 mg/L	16 mg/L	<0.5 mg/L	<0.5 mg/L	–	–	–	–	–	–	–	–	–	–
KWKSFIKKLTSAAKKVVTTAKPLISS (H-KWKSFIKKLTSAAKKVVTTAKPLISS-OH) [CP26, reference compound]	–	–	–	–	–	–	–	8	8	6	4	3	37%	3	37%	3	37%
